Test results: ChEMBL document CHEMBL1130981, “DNA gyrase inhibitory activity of ellagic acid derivatives” (Bioorg Med Chem Lett, 1998)

What follows are molecules tested against DNA gyrase (Escherichia coli, UniProt P0AES4+P0AES6) (assay: Inhibition of DNA gyrase supercoiling in Escherichia coli.).
Type: protein-complex assay
O=c1oc2c(O)c(O)ccc2c2ccc(O)cc12 showed an IC50 of 328 µM.
O=c1oc2c(O)c(O)ccc2c2cc(F)ccc12 gave an IC50 of 447 µM.
O=c1oc2cc(O)c(O)cc2c2cc(O)c(O)cc12 was tested, and the IC50 was 307 µM.
O=c1oc2c(F)c(F)ccc2c2cc(O)c(O)cc12 was tested, and the IC50 was 151 µM.
Molecule Cc1cc(O)c(O)c2oc(=O)c3cc(O)c(O)cc3c12 has an IC50 of 511 µM.
Work on O=c1oc2c(Cl)c(Cl)ccc2c2cc(O)c(O)cc12 yielded an IC50 of 942 µM.
Cc1cc(O)c(O)c2oc(=O)c3ccc(F)cc3c12 gave an IC50 greater than 1920 µM.
In the case of O=c1oc2c(O)c(O)ccc2c2cc(O)c(O)cc12, the IC50 is reported as 500 µM.
For O=C1c2cc(O)c(O)cc2-c2cc(O)c(O)cc21, the IC50 was 53.2 µM.
O=c1oc2cc(O)c(O)cc2c2cc(F)ccc12 showed an IC50 of 1500 µM.
ONC1c2cc(O)c(O)cc2-c2cc(O)c(O)cc21 gave an IC50 of 7.66 µM.
For O=c1oc2ccccc2c2ccccc12, the IC50 was greater than 2550 µM.
With O=c1oc2c(O)c(O)ccc2c2ccccc12 the IC50 was greater than 2190 µM.
O=c1oc2ccccc2c2cc(O)c(O)cc12 showed an IC50 greater than 2190 µM.
Molecule O=c1oc2c(O)c(O)cc3c(=O)oc4c(O)c(O)cc1c4c23 [ELLAGIC ACID] has an IC50 of 156 µM.
